Structures can show the parent of a compound that is named as a salt. Starred links: 1 amine or outer side, 2 acyl side, 3 side chain; linkers in the order of their positions; H or OH if unused. Positions of bridges follow the written chain, without caps; N, C: chain ends. Non-standard residues stand in square brackets, D forms with d. Residues, ends and D or L forms follow the SMILES beside them. *: point of attachment. Trp(7-Me) = Cc1cccc2c(C[C@H](N)C(=O)O)c[nH]c12; X23 = Cn1nnc(CC[C@H](N[*:1])C(=O)[*:2])n1; Dab(NMeAc) = CC(=O)N(C)CC[C@H](N)C(=O)O; Pro(4,4-F2) = O=C(O)[C@@H]1CC(F)(F)CN1; 2Nal = N[C@@H](Cc1ccc2ccccc2c1)C(=O)O; AEF = NCCOc1ccc(C[C@H](N)C(=O)O)cc1; X79 = CN1CCC(N[*:1])(C(=O)[*:2])CC1; 3Pal = N[C@@H](Cc1cccnc1)C(=O)O; Lys(Me) = CNCCCC[C@H](N)C(=O)O; Pen = CC(C)(S)[C@H](N)C(=O)O; Thp = NC1(C(=O)O)CCOCC1; Me2NCH2CH2 = CN(C)CC*; Tfa = O=C(C(F)(F)F)*; Sar = CNCC(=O)O; CHF2 = FC(F)*

The series in a line: Exposed Polar Surface Area (EPSA). The following applies: SFC on Chirex 3014 column; sample 1 mM DMSO stock; read-out: EPSA. The series is classed as physicochemical. In a few lines:
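Chirex 3014 column, 35 °C, 4 mL/min; CO2/MeOH + 20 mM NH4 formate, 5→60% modifier at 20%/min. UV/MS detection. EPSA (Å^2) from retention time vs 8-standard calibration line; duplicates; 1 mM DMSO stock injected undiluted.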
For `CC(=O)NCCCC[C@@H]1NC(=O)[C@H](Cc2c[nH]c3c(C)cccc23)NC(=O)[C@H]([C@@H](C)O)NC(=O)[C@H](CC(N)=O)NC(=O)[C@@H](NC(=O)C(F)(F)F)C(C)(C)SSC(C)(C)[C@@H](C(=O)N[C@@H](Cc2ccc(OCCN(C)C)cc2)C(=O)N[C@@H](Cc2ccc3ccccc3c2)C(=O)NC2(C(=O)N[C@@H](CCCCNC(C)=O)C(=O)N[C@@H](CC(N)=O)C(=O)N[C@@H](Cc3cccnc3)C(=O)N(C)CC(N)=O)CCOCC2)NC1=O` [compound 53] (Tfa-[Pen]NT[Trp(7-Me)]K(Ac)[Pen]Y(Me2NCH2CH2)[2Nal][Thp]K(Ac)N[3Pal][Sar]-NH2; disulfide 1-6 (inferred)), the EPSA stood at 155 A^2.

For the molecule `CC(=O)NCCCC[C@@H]1NC(=O)[C@H](Cc2c[nH]c3c(C)cccc23)NC(=O)[C@H]([C@@H](C)O)NC(=O)[C@H](CC(N)=O)NC(=O)[C@@H](NC(=O)C(F)(F)F)C(C)(C)SSC(C)(C)[C@@H](C(=O)N[C@@H](Cc2ccc(OC(F)F)cc2)C(=O)N[C@@H](Cc2ccc3ccccc3c2)C(=O)NC2(C(=O)N[C@@H](CCCCNC(C)=O)C(=O)N[C@@H](CC(N)=O)C(=O)N[C@@H](Cc3cccnc3)C(=O)N(C)CC(N)=O)CCOCC2)NC1=O` [compound 54] (Tfa-[Pen]NT[Trp(7-Me)]K(Ac)[Pen]Y(CHF2)[2Nal][Thp]K(Ac)N[3Pal][Sar]-NH2; disulfide 1-6 (inferred)), the EPSA worked out at 156 A^2.

`CC(=O)NCCCC[C@@H]1NC(=O)[C@H](Cc2c[nH]c3c(C)cccc23)NC(=O)[C@H]([C@@H](C)O)NC(=O)[C@H](CC(N)=O)NC(=O)[C@@H](NC(=O)C(F)(F)F)C(C)(C)SSC(C)(C)[C@@H](C(=O)N[C@@H](Cc2ccc(OCCN)cc2)C(=O)N[C@@H](Cc2ccc3ccccc3c2)C(=O)NC2(C(=O)N[C@@H](CCCCNC(C)=O)C(=O)N[C@@H](CC(N)=O)C(=O)N[C@@H](Cc3cccnc3)C(=O)N(C)CC(N)=O)CCN(C)CC2)NC1=O` [compound 55] (Tfa-[Pen]NT[Trp(7-Me)]K(Ac)[Pen][AEF][2Nal][X79]K(Ac)N[3Pal][Sar]-NH2; disulfide 1-6 (inferred)): the EPSA was 159 A^2.

For `CC(=O)NCCCC[C@@H]1NC(=O)[C@H](Cc2c[nH]c3c(C)cccc23)NC(=O)[C@H]([C@@H](C)O)NC(=O)[C@H](CC(N)=O)NC(=O)[C@@H](NC(C)=O)C(C)(C)SSC(C)(C)[C@@H](C(=O)N[C@@H](Cc2ccc(OCCN)cc2)C(=O)N[C@@H](Cc2ccc3ccccc3c2)C(=O)NC2(C(=O)N[C@@H](CCCCN(C)C(C)=O)C(=O)N[C@@H](CC(N)=O)C(=O)N[C@@H](Cc3cccnc3)C(=O)N(C)CC(N)=O)CCOCC2)NC1=O` [compound 59] (Ac-[Pen]NT[Trp(7-Me)]K(Ac)[Pen][AEF][2Nal][Thp][Lys(Me)](Ac)N[3Pal][Sar]-NH2; disulfide 1-6 (inferred)), the EPSA was found to be 166 A^2.

As to `CC(=O)NCCCC[C@H](NC(=O)C1(NC(=O)[C@H](Cc2ccc3ccccc3c2)NC(=O)[C@H](Cc2ccc(OCCN)cc2)NC(=O)[C@H]2NC(=O)[C@H](CCC(=O)N(C)C)NC(=O)[C@H](Cc3c[nH]c4c(C)cccc34)NC(=O)[C@H]([C@@H](C)O)NC(=O)[C@H](CC(N)=O)NC(=O)[C@@H](NC(=O)C(F)(F)F)C(C)(C)SSC2(C)C)CCOCC1)C(=O)N[C@@H](CC(N)=O)C(=O)N[C@@H](Cc1cccnc1)C(=O)N(C)CC(N)=O` [compound 61] (Tfa-[Pen]NT[Trp(7-Me)]E(NMe2)[Pen][AEF][2Nal][Thp]K(Ac)N[3Pal][Sar]-NH2; disulfide 1-6 (inferred)), the EPSA was 159 A^2.

For `COCCOCCOCCOCCOCCOCCNCCOc1ccc(C[C@H](NC(=O)[C@H]2NC(=O)[C@H](CCCCNC(C)=O)NC(=O)[C@H](Cc3c[nH]c4c(C)cccc34)NC(=O)[C@H]([C@@H](C)O)NC(=O)[C@H](CC(N)=O)NC(=O)[C@@H](NC(C)=O)C(C)(C)SSC2(C)C)C(=O)N[C@@H](Cc2ccc3ccccc3c2)C(=O)NC2(C(=O)N[C@@H](CCCCNC(C)=O)C(=O)N[C@@H](CC(N)=O)C(=O)N[C@@H](Cc3cccnc3)C(=O)N(C)CC(N)=O)CCOCC2)cc1` [compound 65], the EPSA was 154 A^2.

Turning to `CC(=O)N(C)CCCC[C@@H]1NC(=O)[C@H](Cc2c[nH]c3c(C)cccc23)NC(=O)[C@H]([C@@H](C)O)NC(=O)[C@H](CC(=O)N(C)C)NC(=O)[C@@H](NC(=O)C(F)(F)F)C(C)(C)SSC(C)(C)[C@@H](C(=O)N[C@@H](Cc2ccc(OCCN(C)C)cc2)C(=O)N[C@@H](Cc2ccc3ccccc3c2)C(=O)NC2(C(=O)N[C@@H](CCCCN(C)C(C)=O)C(=O)N[C@@H](CC(N)=O)C(=O)N[C@@H](Cc3cccnc3)C(=O)N(C)CC(=O)N(C)C)CCOCC2)NC1=O` [compound 66, CF3CO-Pen(3)-N(N(Me)2)-T-7MeW-K(NMeAc)-Pen(3)-AEF(N(Me)2)-2Nal-THP-K(NMeAc)-N-3Pya-Sar-CON(Me)2] (Tfa-[Pen]D(NMe2)T[Trp(7-Me)][Lys(Me)](Ac)[Pen]Y(Me2NCH2CH2)[2Nal][Thp][Lys(Me)](Ac)N[3Pal][Sar]-NMe2; disulfide 1-6 (inferred)), the EPSA was determined as 138 A^2.

On to `CC(=O)N(C)CCCC[C@@H]1NC(=O)[C@H](Cc2c[nH]c3c(C)cccc23)NC(=O)[C@H]([C@@H](C)O)NC(=O)[C@H](CC(N)=O)NC(=O)[C@@H](NC(=O)C(F)(F)F)C(C)(C)SSC(C)(C)[C@@H](C(=O)N[C@@H](Cc2ccc(OCCN)cc2)C(=O)N[C@@H](Cc2ccc3ccccc3c2)C(=O)NC2(C(=O)N[C@@H](CCCCN(C)C(C)=O)C(=O)N[C@@H](CC(N)=O)C(=O)N[C@@H](Cc3cccnc3)C(=O)N(C)CC(N)=O)CCOCC2)NC1=O` [compound 69] (Tfa-[Pen]NT[Trp(7-Me)][Lys(Me)](Ac)[Pen][AEF][2Nal][Thp][Lys(Me)](Ac)N[3Pal][Sar]-NH2; disulfide 1-6), for which the EPSA was found to be 161 A^2.

In the case of `CC(=O)NCCCC[C@H](NC(=O)C1(NC(=O)[C@H](Cc2ccc3ccccc3c2)NC(=O)[C@H](Cc2ccc(OCCN)cc2)NC(=O)[C@H]2NC(=O)[C@H](CCN(C)C(C)=O)NC(=O)[C@H](Cc3c[nH]c4c(C)cccc34)NC(=O)[C@H]([C@@H](C)O)NC(=O)[C@H](CC(N)=O)NC(=O)[C@@H](NC(=O)C(F)(F)F)C(C)(C)SSC2(C)C)CCOCC1)C(=O)N[C@@H](CC(N)=O)C(=O)N[C@@H](Cc1cccnc1)C(=O)N(C)CC(N)=O` [compound 70] (Tfa-[Pen]NT[Trp(7-Me)][Dab(NMeAc)][Pen][AEF][2Nal][Thp]K(Ac)N[3Pal][Sar]-NH2; disulfide 1-6), the EPSA came to 157 A^2.

Take `CC(=O)NCCCC[C@@H]1NC(=O)[C@H](Cc2c[nH]c3c(C)cccc23)NC(=O)[C@H]([C@@H](C)O)NC(=O)[C@H](CC(N)=O)NC(=O)[C@@H](NC(=O)C(F)(F)F)C(C)(C)SSC(C)(C)[C@@H](C(=O)N[C@@H](Cc2ccc(OCCN)cc2)C(=O)N[C@@H](Cc2ccc3ccccc3c2)C(=O)NC2(C(=O)N[C@@H](CCC(=O)N(C)C)C(=O)N[C@@H](CC(N)=O)C(=O)N[C@@H](Cc3cccnc3)C(=O)N(C)CC(N)=O)CCOCC2)NC1=O` [compound 72] (Tfa-[Pen]NT[Trp(7-Me)]K(Ac)[Pen][AEF][2Nal][Thp]E(NMe2)N[3Pal][Sar]-NH2; disulfide 1-6 (inferred)): the EPSA was 160 A^2.

For `CC(=O)NCCCC[C@@H]1NC(=O)[C@H](Cc2c[nH]c3c(C)cccc23)NC(=O)[C@H]([C@@H](C)O)NC(=O)[C@H](CC(N)=O)NC(=O)[C@@H](NC(=O)C(F)(F)F)C(C)(C)SSC(C)(C)[C@@H](C(=O)N[C@@H](Cc2ccc(OCCN)cc2)C(=O)N[C@@H](Cc2ccc3ccccc3c2)C(=O)NC2(C(=O)N[C@@H](CCCCNC(C)=O)C(=O)N[C@@H](CC(N)=O)C(=O)N[C@@H](Cc3cccnc3)C(=O)N3CC(F)(F)C[C@H]3C(=O)N(C)C)CCOCC2)NC1=O` [compound 73] (Tfa-[Pen]NT[Trp(7-Me)]K(Ac)[Pen][AEF][2Nal][Thp]K(Ac)N[3Pal][Pro(4,4-F2)]-NMe2; disulfide 1-6 (inferred)), the EPSA worked out at 155 A^2.

With `CC(=O)NCCCC[C@@H]1NC(=O)[C@H](Cc2c[nH]c3c(C)cccc23)NC(=O)[C@H]([C@@H](C)O)NC(=O)[C@H](CC(N)=O)NC(=O)[C@@H](NC(=O)C(F)(F)F)C(C)(C)SSC(C)(C)[C@@H](C(=O)N[C@@H](Cc2ccc(OCCN)cc2)C(=O)N[C@@H](Cc2ccc3ccccc3c2)C(=O)NC2(C(=O)N[C@@H](CCCCNC(C)=O)C(=O)N[C@@H](CC(N)=O)C(=O)N[C@@H](Cc3cccnc3)C(=O)N(C)CC(=O)N(C)C)CCOCC2)NC1=O` [compound 74] (Tfa-[Pen]NT[Trp(7-Me)]K(Ac)[Pen][AEF][2Nal][Thp]K(Ac)N[3Pal][Sar]-NMe2; disulfide 1-6 (inferred)), the EPSA was 154 A^2.

With `CC(=O)N(C)CC[C@@H]1NC(=O)[C@H](Cc2c[nH]c3c(C)cccc23)NC(=O)[C@H]([C@@H](C)O)NC(=O)[C@H](CC(N)=O)NC(=O)[C@@H](NC(=O)C(F)(F)F)C(C)(C)SSC(C)(C)[C@@H](C(=O)N[C@@H](Cc2ccc(OCCN)cc2)C(=O)N[C@@H](Cc2ccc3ccccc3c2)C(=O)NC2(C(=O)N[C@@H](CCC(=O)N(C)C)C(=O)N[C@@H](CC(N)=O)C(=O)N[C@@H](Cc3cccnc3)C(=O)N(C)CC(N)=O)CCOCC2)NC1=O` [compound 75] (Tfa-[Pen]NT[Trp(7-Me)][Dab(NMeAc)][Pen][AEF][2Nal][Thp]E(NMe2)N[3Pal][Sar]-NH2; disulfide 1-6), the EPSA amounted to 157 A^2.

In the case of `CC(=O)NCCCC[C@@H]1NC(=O)[C@H](Cc2c[nH]c3c(C)cccc23)NC(=O)[C@H]([C@@H](C)O)NC(=O)[C@H](CC(N)=O)NC(=O)[C@@H](NC(=O)C(F)(F)F)C(C)(C)SSC(C)(C)[C@@H](C(=O)N[C@@H](Cc2ccc(OCCN)cc2)C(=O)N[C@@H](Cc2ccc3ccccc3c2)C(=O)NC2(C(=O)N[C@@H](CCc3nnn(C)n3)C(=O)N[C@@H](CC(N)=O)C(=O)N[C@@H](Cc3cccnc3)C(=O)N(C)CC(N)=O)CCOCC2)NC1=O` [compound 76] (Tfa-[Pen]NT[Trp(7-Me)]K(Ac)[Pen][AEF][2Nal][Thp][X23]N[3Pal][Sar]-NH2; disulfide 1-6), the EPSA worked out at 161 A^2.

The values are drawn from US20260022143A1, “Cyclic Peptide Inhibitors of IL-23” (JANSSEN PHARMACEUTICA NV, priority 2022, published 2026).
